Laboratory results taken from PMC7328663, “Agonist-specific desensitization of PGE2-stimulated cAMP signaling due to upregulated phosphodiesterase expression in human lung fibroblasts” (Naunyn-Schmiedeberg's archives of pharmacology, 2019).
pEC50: −log10 of the molar value. Where “and” joins values, the source holds several entries; their conditions need not be identical. Equal values may be shown once.

Key:
HFL-1 cells [1] = test: cADDis assay for cAMP (fluorescent biosensor) in HFL-1 fibroblasts; format: cell-based, human; settings: for leftward shift of PGE2 concentration-response curve (reversal of desensitization) by PDE inhibitor: 10 μM inhibitor, 10 min, Fig. 7a–c; for rightward shift of PGE2 responses induced by pretreatment: 24 h pretreatment with 100 nM of the agonist vs vehicle, Fig. 5b, n = 4; for desensitization of β-AR (isoproterenol) cAMP responses by pretreatment: 24 h pretreatment with 100 nM PGE2 or 100 nM isoproterenol, Fig. 1d; for pEC50: Homo sapiens, HFL1; for PGE2 maximal response: normalized to 1 μM forskolin plus 200 μM IBMX, Fig. 4 experiments; for desensitization of PGE2 cAMP responses by pretreatment: 24 h pretreatment with 100 nM isoproterenol or 1 μM forskolin, Fig. 2a, Fig. 3
Description: HFL-1 fibroblasts (ATCC, Manassas, VA, USA) were grown in Ham’s F12K medium (Thermo Fisher Scientific, Waltham, MA, USA) with 10% fetal bovine serum (Atlanta Biologicals, Flowery Branch, GA, USA) and 1% antibiotic-antimycotic solution. Cells with a passage number of 13 to 25 were used and were grown to 70–90% confluency for all studies. Cells were grown in an incubator at 37 °C and 5% CO2 levels. Medium was aspirated and cells were washed once with PBS. After aspiration of PBS, 5 mL of 0.25% trypsin-EDTA (Thermo Fisher Scientific, Waltham, MA, USA) was added for 5 min to induce cell detachment. Media was added to the flask and gently mixed to suspend detached cells, transferred to tubes, centrifuged at 500g for 5 min, then washed to remove trypsin. The cell pellet was resuspended in growth medium, and approximately 9000 sells were plated per well on 96-well plates. Cells were pretreated with PGE2, other drugs, or vehicle prior to experiments by adding 10× concentration of drug to growth media. Medium was aspirated after 24 h, and each well was washed once with warm Dulbecco’s phosphate-buffered saline before performing cADDis assay for cAMP.
The cADDis assay was purchased from Montana Molecular (Bozeman, MT, USA). HFL-1 cells were incubated with a recombinant mammalianized baculovirus (BacMam) engineered to express a genetically modified protein that is a fusion of EPAC, a cAMP effector, with the green fluorescent protein (GFP). This protein serves as a convenient and quantitative cAMP sensor. In its unbound form, the protein fluoresces, but its fluorescence is quenched upon binding of cAMP. When seeding the cells in a 96-well plate, the following components were added: […] of cells plus media, 40 μL BacMam solution, and 2 μL of trichostatin A (an inhibitor of histone deacetylase) (Sigma®, St. Louis, MO, USA). In the 96-well plate format, approximately 8900 cells were seeded per well and 2.95 × 10^8 viral particles per well were added. Trichostatin A stock concentration was 100 μM, giving a final concentration of 1 μM in the final volume of 200 μL per well. Transduced HFL-1 cells were incubated for 24 h at 37 °C and 5% CO2 levels. After incubation, medium was aspirated and replaced with 180 μL per well of 1× Dulbecco’s phosphate-buffered saline without calcium and magnesium (Thermo Fisher Scientific, Waltham, MA, USA). The 96-well plate was then covered with aluminum foil and incubated at 37 °C for 30 min. The plate was placed in a SpectraMax M5 plate reader (Molecular Devices, San Jose, CA, USA), and fluorescence was read from the bottom of the plate with an excitation wavelength of 494 nm and an emission wavelength of 522 nm for 5 min. Once variability of fluorescence was ≤ 5% in all wells, different concentrations ofPGE2 or other agents were added with a multi-pipette and the changes in fluorescence were measured every 30 s for 30 min.
Data from kinetic studies of fluorescence were normalized to the original level of fluorescence (ΔF/F0) and then fit to a single-site decay model using GraphPad Prism 7.0 (GraphPad Software Inc., San Diego, CA, USA). The plateau of each decay curve was then used as the maximal response to that given concentration of drug (Emax), and concentration-response curves were generated using nonlinear regression analysis (log [agonist] vs. response, variable slope, four parameters) using GraphPad Prism 7.0. Concentration-response curves in multiple conditions were compared using two-way analysis of variance (2-way ANOVA) with Tukey’s multiple comparison test, and significance (p value) is reported for the effect of different conditions. Statistical comparison tests (t tests, 1-way and 2-way ANOVA) were performed using GraphPad Prism.

PDE = PDE activity assays in HFL-1 cell lysates ([3H]cAMP hydrolysis); format: biochemical, human; settings: for PDE activity in lysates in presence of inhibitor: roflumilast 1 μM or IBMX 1 mM in the assay, vehicle-, PGE2- and isoproterenol-pretreated cells, Fig. 6d; for bulk PDE activity vs vehicle: cells treated 24 h with 30 μM forskolin, 100 nM PGE2 or 1 μM isoproterenol, Fig. 6c
HFL-1 cells [2] = test: Assay of basal cAMP (EIA of TCA extracts); format: cell-based, human; settings: cells pretreated with 100 nM PGE2 for 24 h; not significant vs vehicle (p = 0.815)
Description: HFL-1 cells were washed three times with serum- and NaHCO3-free DMEM supplemented with 20 mM HEPES, pH 7.4 (DMEH), then incubated for 30 min at 37 °C. Medium was aspirated, and 250 μL of trichloroacetic acid (TCA, 7.5% w/v) was added to each well. cAMP content in TCA extracts was determined by EIA (Cayman Chemical) following the manufacturer’s instructions. The amount of cAMP was normalized to the amount of protein per sample as determined using a dye-binding protein assay (Bio-Rad).

PDE3A = test: qRT-PCR of PDE3A mRNA after 24 h pretreatment; format: cell-based, human; settings: 24 h pretreatment: 1 μM forskolin, 100 nM isoproterenol or 100 nM PGE2; Fig. 6a
Description: (§1) After 48-h incubation with the lentivirus, medium was aspirated, cells were washed once in 1× PBS, and buffer RLT was added to disrupt cell membranes. Cells were collected and RNA was isolated using RNeasy columns with a QIAcube robot (Qiagen). RNA was quantified using the NanoDrop 2000/2000c (Thermo Fisher). Reverse transcription was performed on 400 ng of RNA samples. All steps followed the SuperScript® III First-Strand Synthesis System for RT-PCR protocol (Thermo Fisher). The steps included a denaturation step at 65 °C for 5 min in the RNA/primer mixture, containing 50 ng/μL of random hexamers. Complementary DNA (cDNA) synthesis mixture was added to the RNA/primer mixture and incubated for 10 min at 25 °C, followed by 50 min at 50 °C. The reaction was terminated at 85 °C for 5 min, then chilled on ice. Finally, 1 μL of RNase H was added to each tube followed by incubation for 20 min at 37 °C. cDNA samples were either used immediately for quantitative reverse transcription polymerase chain reaction (qRT-PCR) experiments or stored at − 20 °C.
(§2) TaqMan® Gene Expression Assays (Thermo Fisher) were used for qRT-PCR reactions. The ratio of components for each reaction was as follows: 1 μL 20× TaqMan® Gene Expression Assay, 10 μL 2× TaqMan® Gene Expression Mater Mix, 4 μL cDNA (1 ng to 100 ng), and 5 μL of RNase-free water. The thermal cycler settings were as follows: step 1, 50 °C for 2 min; step 2, 95 °C for 10 min; step 3, 95 °C for 15 s; and step 4, 60 °C for 1 min. Steps 3 and 4 were repeated for a total of 40 cycles. The housekeeping genes GAPDH, β-actin, and CDKN1A were used to normalize for differences in RNA samples. PCR data were analyzed using the 2^[−ΔΔCt] method, where Ct is the cycle threshold.

PDE3B = test: qRT-PCR of PDE3B mRNA after 24 h pretreatment; format: cell-based, human; settings: 24 h pretreatment: 1 μM forskolin, 100 nM isoproterenol or 100 nM PGE2; Fig. 6a
Description: as §1, §2

PDE4B = test: qRT-PCR of PDE4B mRNA after 24 h pretreatment; format: cell-based, human; settings: 24 h pretreatment: 1 μM forskolin, 100 nM isoproterenol or 100 nM PGE2; Fig. 6a
Description: as §1, §2

PDE4D = test: qRT-PCR of PDE4D mRNA after 24 h pretreatment; format: cell-based, human; settings: 24 h pretreatment: 1 μM forskolin, 100 nM isoproterenol or 100 nM PGE2; Fig. 6a
Description: as §1, §2

EP2R = test: qRT-PCR of EP2R mRNA after 24 h pretreatment; format: cell-based, human; settings: 24-h pretreatment with 100 nM PGE2; Fig. 6a
Description: TaqMan® Gene Expression Assays (Thermo Fisher) were used for qRT-PCR reactions. […] PCR data were analyzed using the 2^[−ΔΔCt] method, where Ct is the cycle threshold.

[3] = cells pretreated with 100 nM PGE2 for 24 h
[4] = acute cAMP increase, no pretreatment, Fig. 5a

CCOc1c2c(c(OCC)c3ccccc13)C(=O)N(c1ccc(CC(=O)NS(=O)(=O)c3ccccc3)cc1)C2 [GW-627368X]
shift of PGE2 concentration-response curve by antagonist (HFL-1 cells [1]; antagonist 100 nM, cells pretreated with 100 nM PGE2 for 24 h, Fig. 4): did not
rightward shift of PGE2 concentration-response curve by antagonist (HFL-1 cells [1]; antagonist 100 nM, vehicle-pretreated cells): did not cause a rightward shift

CC(C)Cn1c(=O)n(C)c(=O)c2[nH]cnc21 [IBMX, 3-isobutyl-1-methylxanthine]
leftward shift of PGE2 concentration-response curve (reversal of desensitization) by PDE inhibitor (HFL-1 cells [1]; [3]): small leftward shift that was not statistically significant
PDE activity in lysates in presence of inhibitor (PDE): significantly reduced PDE activity

C=CCC1([C@@H](O)C/C=C/[C@@H]2[C@@H](C/C=C\CCCC(=O)O)[C@H](Cl)C[C@H]2O)CCC1 [ONO-AE1–259]
rightward shift of PGE2 responses induced by pretreatment (HFL-1 cells [1]): 4.0 ± 1.2 fold and 4 fold
log EC50 (HFL-1 cells [1]; [4]): −8.29

CCCCC[C@H](O)/C=C/[C@H]1[C@H](O)CC(=O)[C@@H]1C/C=C\CCCC(=O)O [PGE2, prostaglandin E2]
desensitization of β-AR (isoproterenol) cAMP responses by pretreatment (HFL-1 cells [1]; Fig. 2b): does not cause desensitization
rightward shift of PGE2 responses induced by pretreatment (HFL-1 cells [1]): 8.0 ± 2.2 fold
pEC50 (HFL-1 cells [1]; acute PGE2 cAMP response, 24 h vehicle pretreatment, Table 1/Fig. 1c, mean ± SEM n = 3–10): 7.40
pEC50 (HFL-1 cells [1]; [4]): 8.48
PGE2 maximal response (HFL-1 cells [1]; PGE2-pretreated cells (100 nM, 24 h)): 0.60 ± 0.09
Emax (HFL-1 cells [1]; PGE2 response after 24 h pretreatment with 1, 10 or 100 nM PGE2 vs vehicle): None of the pretreatment conditions produced a significant reduction
PGE2 maximal response (HFL-1 cells [1]; vehicle-pretreated cells): 1.06 ± 0.10
basal cAMP level (HFL-1 cells [2]): 57.9 ± 13.8 fmol/mg protein
PDE3A mRNA expression, fold change over vehicle (PDE3A): 7.3 fold
PDE3B mRNA expression (PDE3B): Significant upregulation
PDE4B mRNA expression, fold change over vehicle (PDE4B): 2.6 fold
PDE4D mRNA expression, fold change over vehicle (PDE4D): 22.3 fold
EP2R mRNA levels (EP2R): did not observe any change
bulk PDE activity vs vehicle (PDE): significantly increased PDE activity
bulk PDE activity vs vehicle, time course (PDE; cells treated with 100 nM PGE2 from 5 min to 24 h, after 6 h or more): significant increases

O=C1CCc2cc(OCCCCc3nnnn3C3CCCCC3)ccc2N1 [cilostazol]
leftward shift of PGE2 concentration-response curve (reversal of desensitization) by PDE inhibitor (HFL-1 cells [1]; [3]): had no effect

C=C[C@@]1(C)CC(=O)[C@]2(O)[C@@]3(C)[C@@H](O)CCC(C)(C)[C@@H]3[C@H](O)[C@H](OC(C)=O)[C@@]2(C)O1 [forskolin]
desensitization of PGE2 cAMP responses by pretreatment (HFL-1 cells [1]): did not cause desensitization of PGE2 responses
PDE3A mRNA expression, fold change over vehicle (PDE3A): no effect
PDE3B mRNA expression (PDE3B): Significant upregulation
PDE4B mRNA expression, fold change over vehicle (PDE4B): 3.9 fold
PDE4D mRNA expression, fold change over vehicle (PDE4D): 7.9 fold
bulk PDE activity vs vehicle (PDE): significantly increased PDE activity

CC(C)NCC(O)c1ccc(O)c(O)c1 (stereo not drawn) [isoproterenol]
desensitization of β-AR (isoproterenol) cAMP responses by pretreatment (HFL-1 cells [1]; Fig. 2b): induces desensitization of β-AR responses
desensitization of PGE2 cAMP responses by pretreatment (HFL-1 cells [1]): does not decrease responses to PGE2
pEC50 (HFL-1 cells [1]; acute isoproterenol cAMP response, 24 h pretreatment with 100 nM isoproterenol, Fig. 2b): 8.65
PDE3A mRNA expression, fold change over vehicle (PDE3A): no effect
PDE3B mRNA expression (PDE3B): Significant upregulation
PDE4B mRNA expression, fold change over vehicle (PDE4B): 1.3 fold
PDE4D mRNA expression, fold change over vehicle (PDE4D): 5.0 fold
bulk PDE activity vs vehicle (PDE): does not

O=C(Nc1c(Cl)cncc1Cl)c1ccc(OC(F)F)c(OCC2CC2)c1 [roflumilast]
PDE activity in lysates in presence of inhibitor (PDE): significantly reduced PDE activity

COc1ccc(C2CNC(=O)C2)cc1OC1CCCC1 (stereo not drawn) [rolipram]
leftward shift of PGE2 concentration-response curve (reversal of desensitization) by PDE inhibitor (HFL-1 cells [1]; [3]): 2.8 fold
effect on isoproterenol cAMP responses (HFL-1 cells [1]; 10 μM rolipram, cells pretreated with 100 nM PGE2 for 24 h, Fig. 7d): had no effect
